# According to PubChem BioAssay (NCI):
#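 Exposure lasted 48 hours, with cells grown in 96-well plates and compounds tested at five concentrations. GI50 is the concentration that inhibits growth by half. TGI is the concentration that stops growth completely.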
# Key:
# Assay in all cases: inhibition of tumour cell growth, NCI panel, 48 h
# MDA-MB-468 breast = system: MDA-MB-468 breast
# OVCAR-4 ovarian = system: OVCAR-4 ovarian
# NCI-H460 lung = system: NCI-H460 lung
# HL-60(TB) leukemia = system: HL-60(TB) leukemia
# KM12 colon = system: KM12 colon
# MALME-3M melanoma = system: MALME-3M melanoma
# SF-268 CNS = system: SF-268 CNS
# DU-145 prostate = system: DU-145 prostate
# NCI-H226 lung = system: NCI-H226 lung
# HS 578T breast = system: HS 578T breast
# COLO 205 colon = system: COLO 205 colon
# NCI-H23 lung = system: NCI-H23 lung
# IGROV1 ovarian = system: IGROV1 ovarian
# MDA-MB-435 = system: MDA-MB-435
# LOX IMVI melanoma = system: LOX IMVI melanoma
# 786-0 renal = system: 786-0 renal
# SW-620 colon = system: SW-620 colon
# EKVX NSCLC = system: EKVX NSCLC
# CAKI-1 renal = system: CAKI-1 renal
# CCRF-CEM leukemia = system: CCRF-CEM leukemia
# HCC-2998 colon = system: HCC-2998 colon
# SNB-19 CNS = system: SNB-19 CNS
# T-47D breast = system: T-47D breast
# HCT-15 colon = system: HCT-15 colon
# SK-MEL-5 melanoma = system: SK-MEL-5 melanoma
# TK-10 renal = system: TK-10 renal
# NCI-H522 lung = system: NCI-H522 lung
# UACC-257 melanoma = system: UACC-257 melanoma
# MCF7 breast = system: MCF7 breast
# M14 melanoma = system: M14 melanoma
# SF-295 CNS = system: SF-295 CNS
# HCT-116 colon = system: HCT-116 colon
# SN12C renal = system: SN12C renal
# PC-3 prostate = system: PC-3 prostate
# OVCAR-3 ovarian = system: OVCAR-3 ovarian
# MOLT-4 leukemia = system: MOLT-4 leukemia
# U251 CNS = system: U251 CNS
# ACHN renal = system: ACHN renal
# SK-MEL-28 melanoma = system: SK-MEL-28 melanoma
# K-562 leukemia = system: K-562 leukemia
# HOP-62 NSCLC = system: HOP-62 NSCLC
# NCI/ADR-RES ovarian = system: NCI/ADR-RES ovarian
# SF-539 CNS = system: SF-539 CNS
# UACC-62 melanoma = system: UACC-62 melanoma
# OVCAR-5 ovarian = system: OVCAR-5 ovarian
# SNB-75 CNS = system: SNB-75 CNS
# HOP-92 NSCLC = system: HOP-92 NSCLC
# RXF 393 renal = system: RXF 393 renal
# SK-MEL-2 melanoma = system: SK-MEL-2 melanoma
# OVCAR-8 ovarian = system: OVCAR-8 ovarian
# A498 renal = system: A498 renal
# RPMI-8226 leukemia = system: RPMI-8226 leukemia
# BT-549 breast = system: BT-549 breast
# A549 NSCLC = system: A549 NSCLC
# SK-OV-3 ovarian = system: SK-OV-3 ovarian
# HT29 colon = system: HT29 colon
smiles,measurement,setting,value
CS(=O)(=O)c1ccc(-c2[nH]c3ccc(F)cc3c2/C=N/NC(N)=S)cc1,GI50,MDA-MB-468 breast,2.67 µM
same,TGI,MDA-MB-468 breast,13.4 µM
CC(=O)OC1CC(C)c2c(Cl)ncnc21 (stereo unspecified),GI50,MDA-MB-468 breast,> 100 µM
same,TGI,MDA-MB-468 breast,> 100 µM
CO[C@@H]1CSSC1Cn1nc(-c2ccc(Oc3ccccc3)cc2)c2c(N)ncnc21 (stereo partly specified),GI50,OVCAR-4 ovarian,> 100 µM
same,TGI,OVCAR-4 ovarian,> 100 µM
same,GI50,NCI-H460 lung,3.43 µM
same,TGI,NCI-H460 lung,76.5 µM
same,GI50,HL-60(TB) leukemia,6.13 µM
same,TGI,HL-60(TB) leukemia,> 100 µM
same,GI50,KM12 colon,8.73 µM
same,TGI,KM12 colon,> 100 µM
same,GI50,MALME-3M melanoma,62.7 µM
same,TGI,MALME-3M melanoma,> 100 µM
same,GI50,SF-268 CNS,8.22 µM
same,TGI,SF-268 CNS,> 100 µM
same,GI50,DU-145 prostate,> 100 µM
same,TGI,DU-145 prostate,> 100 µM
same,GI50,NCI-H226 lung,39.7 µM
same,TGI,NCI-H226 lung,> 100 µM
same,GI50,HS 578T breast,> 100 µM
same,TGI,HS 578T breast,> 100 µM
same,GI50,COLO 205 colon,53.2 µM
same,TGI,COLO 205 colon,> 100 µM
same,GI50,NCI-H23 lung,> 100 µM
same,TGI,NCI-H23 lung,> 100 µM
same,GI50,IGROV1 ovarian,> 100 µM
same,TGI,IGROV1 ovarian,> 100 µM
same,GI50,MDA-MB-435,3.19 µM
same,TGI,MDA-MB-435,10.2 µM
same,GI50,LOX IMVI melanoma,43.9 µM
same,TGI,LOX IMVI melanoma,> 100 µM
same,GI50,786-0 renal,> 100 µM
same,TGI,786-0 renal,> 100 µM
same,GI50,SW-620 colon,57.9 µM
same,TGI,SW-620 colon,> 100 µM
same,GI50,EKVX NSCLC,7.29 µM
same,TGI,EKVX NSCLC,> 100 µM
same,GI50,CAKI-1 renal,> 100 µM
same,TGI,CAKI-1 renal,> 100 µM
same,GI50,CCRF-CEM leukemia,4.29 µM
same,TGI,CCRF-CEM leukemia,> 100 µM
same,GI50,HCC-2998 colon,21 µM
same,TGI,HCC-2998 colon,> 100 µM
same,GI50,SNB-19 CNS,> 100 µM
same,TGI,SNB-19 CNS,> 100 µM
same,GI50,T-47D breast,6.14 µM
same,TGI,T-47D breast,> 100 µM
same,GI50,HCT-15 colon,33.3 µM
same,TGI,HCT-15 colon,> 100 µM
same,GI50,SK-MEL-5 melanoma,14.8 µM
same,TGI,SK-MEL-5 melanoma,> 100 µM
same,GI50,TK-10 renal,37.9 µM
same,TGI,TK-10 renal,> 100 µM
same,GI50,NCI-H522 lung,41.8 µM
same,TGI,NCI-H522 lung,> 100 µM
same,GI50,UACC-257 melanoma,16.2 µM
same,TGI,UACC-257 melanoma,> 100 µM
same,GI50,MCF7 breast,6.87 µM
same,TGI,MCF7 breast,> 100 µM
same,GI50,M14 melanoma,1.99 µM
same,TGI,M14 melanoma,4.35 µM
same,GI50,SF-295 CNS,62 µM
same,TGI,SF-295 CNS,> 100 µM
same,GI50,HCT-116 colon,5.36 µM
same,TGI,HCT-116 colon,> 100 µM
same,GI50,SN12C renal,> 100 µM
same,TGI,SN12C renal,> 100 µM
same,GI50,PC-3 prostate,58.7 µM
same,TGI,PC-3 prostate,> 100 µM
same,GI50,OVCAR-3 ovarian,63.5 µM
same,TGI,OVCAR-3 ovarian,> 100 µM
same,GI50,MOLT-4 leukemia,2.24 µM
same,TGI,MOLT-4 leukemia,6.52 µM
same,GI50,U251 CNS,> 100 µM
same,TGI,U251 CNS,> 100 µM
same,GI50,ACHN renal,12.3 µM
same,TGI,ACHN renal,> 100 µM
same,GI50,SK-MEL-28 melanoma,2.87 µM
same,TGI,SK-MEL-28 melanoma,21 µM
same,GI50,K-562 leukemia,3.6 µM
same,TGI,K-562 leukemia,> 100 µM
same,GI50,HOP-62 NSCLC,16.4 µM
same,TGI,HOP-62 NSCLC,> 100 µM
same,GI50,NCI/ADR-RES ovarian,> 100 µM
same,TGI,NCI/ADR-RES ovarian,> 100 µM
same,GI50,MDA-MB-468 breast,5.18 µM
same,TGI,MDA-MB-468 breast,86.5 µM
same,GI50,SF-539 CNS,> 100 µM
same,TGI,SF-539 CNS,> 100 µM
same,GI50,UACC-62 melanoma,14.5 µM
same,TGI,UACC-62 melanoma,> 100 µM
same,GI50,OVCAR-5 ovarian,51.5 µM
same,TGI,OVCAR-5 ovarian,> 100 µM
same,GI50,SNB-75 CNS,> 100 µM
same,TGI,SNB-75 CNS,> 100 µM
same,GI50,HOP-92 NSCLC,> 100 µM
same,TGI,HOP-92 NSCLC,> 100 µM
same,GI50,RXF 393 renal,50.3 µM
same,TGI,RXF 393 renal,> 100 µM
same,GI50,SK-MEL-2 melanoma,22.8 µM
same,TGI,SK-MEL-2 melanoma,> 100 µM
same,GI50,OVCAR-8 ovarian,> 100 µM
same,TGI,OVCAR-8 ovarian,> 100 µM
same,GI50,A498 renal,99 µM
same,TGI,A498 renal,> 100 µM
same,GI50,RPMI-8226 leukemia,43.3 µM
same,TGI,RPMI-8226 leukemia,> 100 µM
same,GI50,BT-549 breast,> 100 µM
same,TGI,BT-549 breast,> 100 µM
same,GI50,A549 NSCLC,13.9 µM
same,TGI,A549 NSCLC,> 100 µM
same,GI50,SK-OV-3 ovarian,3.25 µM
same,TGI,SK-OV-3 ovarian,24.6 µM
same,GI50,HT29 colon,6.82 µM
same,TGI,HT29 colon,> 100 µM
